Laboratory results published in the supplement of paper PMC10307832.

Assays:
Experiment in all cases: relative viability (nuclei count vs DMSO), 5 days (fraction); higher = more cells survive
[1] = system: A-427
Method in brief: (§1)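 For relative viability, nuclei counts in treated wells were divided by those in vehicle wells. Lung cancer cell lines had been pin-tool dosed in 1536-well plates the day after seeding and cultured for 5 days, then fixed and stained in one step (final 0.05% Triton X-100, 1% formaldehyde, 1 ug/ml Hoechst) and imaged at 4×. Doses were one drug alone or a fixed anchor-drug dose plus five library-drug doses (not always all listed) in √10 steps, and values are duplicate-plate medians.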

[2] = system: COR-L 105
Method in brief: as §1

[3] = system: EKVX
Method in brief: as §1

[4] = system: EMC-BAC-2
Method in brief: as §1

[5] = system: H3255
Method in brief: as §1

[6] = system: HCC-366
Method in brief: as §1

[7] = system: LK-2
Method in brief: as §1

[8] = system: LOU-NH91
Method in brief: as §1

[9] = system: NCI-H1563
Method in brief: as §1

[10] = system: NCI-H1666
Method in brief: as §1

[11] = system: NCI-H1734
Method in brief: as §1

[12] = system: NCI-H1755
Method in brief: as §1

[13] = system: NCI-H1792
Method in brief: as §1

[14] = system: NCI-H1975
Method in brief: as §1

[15] = system: NCI-H2170
Method in brief: as §1

[16] = system: NCI-H23
Method in brief: as §1

[17] = system: NCI-H441
Method in brief: as §1

[18] = system: NCI-H520
Method in brief: as §1

[19] = system: NCI-H596
Method in brief: as §1

[20] = system: PC-3 [JPC-3]
Method in brief: as §1

[21] = system: SK-MES-1
Method in brief: as §1

C=C1C(=O)O[C@@H](CCCCCCCC)[C@@H]1C(=O)O [C-75] + Cc1nc(NC(=O)N2CCC[C@H]2C(N)=O)sc1-c1ccnc(C(C)(C)C(F)(F)F)c1 [Alpelisib] (partner 2 µM)
relative viability ([1]; first compound 0.08 µM): 1.06 | relative viability ([1]; first compound 0.253 µM): 1.08 | relative viability ([1]; first compound 0.8 µM): 1.14 | relative viability ([1]; first compound 2.53 µM): 0.95 | relative viability ([1]; first compound 8 µM): 1.03 | relative viability ([2]; first compound 0.08 µM): 1.15 | relative viability ([2]; first compound 0.253 µM): 1.1 | relative viability ([2]; first compound 0.8 µM): 1.06 | relative viability ([2]; first compound 2.53 µM): 0.895 | relative viability ([2]; first compound 8 µM): 0.668 | relative viability ([3]; first compound 0.08 µM): 0.885 | relative viability ([3]; first compound 0.253 µM): 0.863 | relative viability ([3]; first compound 0.8 µM): 0.913 | relative viability ([3]; first compound 2.53 µM): 0.583 | relative viability ([3]; first compound 8 µM): 0.969 | relative viability ([4]; first compound 0.08 µM): 0.726 | relative viability ([4]; first compound 0.253 µM): 0.688 | relative viability ([4]; first compound 0.8 µM): 0.717 | relative viability ([4]; first compound 2.53 µM): 0.679 | relative viability ([4]; first compound 8 µM): 0.726 | relative viability ([5]; first compound 0.08 µM): 0.615 | relative viability ([5]; first compound 0.253 µM): 0.789 | relative viability ([5]; first compound 0.8 µM): 0.638 | relative viability ([5]; first compound 2.53 µM): 0.828 | relative viability ([5]; first compound 8 µM): 0.78 | relative viability ([6]; first compound 0.08 µM): 0.502 | relative viability ([6]; first compound 0.253 µM): 0.48 | relative viability ([6]; first compound 0.8 µM): 0.381 | relative viability ([6]; first compound 8 µM): 0.404 | relative viability ([7]; first compound 0.08 µM): 0.921 | relative viability ([7]; first compound 0.253 µM): 0.771 | relative viability ([7]; first compound 0.8 µM): 1.13 | relative viability ([7]; first compound 2.53 µM): 1.28 | relative viability ([7]; first compound 8 µM): 1 | relative viability ([8]; first compound 0.08 µM): 0.771 | relative viability ([8]; first compound 0.253 µM): 0.643 | relative viability ([8]; first compound 0.8 µM): 0.719 | relative viability ([8]; first compound 2.53 µM): 0.744 | relative viability ([8]; first compound 8 µM): 0.723 | relative viability ([9]; first compound 0.08 µM): 0.939 | relative viability ([9]; first compound 0.253 µM): 0.969 | relative viability ([9]; first compound 0.8 µM): 0.886 | relative viability ([9]; first compound 2.53 µM): 0.974 | relative viability ([9]; first compound 8 µM): 0.901 | relative viability ([10]; first compound 0.08 µM): 0.908 | relative viability ([10]; first compound 0.253 µM): 1.13 | relative viability ([10]; first compound 0.8 µM): 0.879 | relative viability ([10]; first compound 2.53 µM): 0.987 | relative viability ([10]; first compound 8 µM): 0.71 | relative viability ([11]; first compound 0.08 µM): 0.691 | relative viability ([11]; first compound 0.253 µM): 0.609 | relative viability ([11]; first compound 0.8 µM): 0.69 | relative viability ([11]; first compound 2.53 µM): 0.447 | relative viability ([11]; first compound 8 µM): 0.631 | relative viability ([12]; first compound 0.08 µM): 0.938 | relative viability ([12]; first compound 0.253 µM): 0.823 | relative viability ([12]; first compound 0.8 µM): 0.913 | relative viability ([12]; first compound 2.53 µM): 0.739 | relative viability ([12]; first compound 8 µM): 0.919 | relative viability ([13]; first compound 0.08 µM): 0.67 | relative viability ([13]; first compound 0.253 µM): 0.728 | relative viability ([13]; first compound 0.8 µM): 0.687 | relative viability ([13]; first compound 2.53 µM): 0.581 | relative viability ([13]; first compound 8 µM): 0.673 | relative viability ([14]; first compound 0.08 µM): 0.657 | relative viability ([14]; first compound 0.253 µM): 0.675 | relative viability ([14]; first compound 0.8 µM): 0.698 | relative viability ([14]; first compound 2.53 µM): 0.61 | relative viability ([14]; first compound 8 µM): 0.66 | relative viability ([15]; first compound 0.08 µM): 0.796 | relative viability ([15]; first compound 0.253 µM): 0.779 | relative viability ([15]; first compound 0.8 µM): 0.776 | relative viability ([15]; first compound 2.53 µM): 0.741 | relative viability ([15]; first compound 8 µM): 0.713 | relative viability ([16]; first compound 0.08 µM): 0.546 | relative viability ([16]; first compound 0.253 µM): 0.818 | relative viability ([16]; first compound 0.8 µM): 0.565 | relative viability ([16]; first compound 2.53 µM): 0.618 | relative viability ([16]; first compound 8 µM): 0.505 | relative viability ([17]; first compound 0.08 µM): 0.762 | relative viability ([17]; first compound 0.253 µM): 0.734 | relative viability ([17]; first compound 0.8 µM): 0.577 | relative viability ([17]; first compound 2.53 µM): 0.589 | relative viability ([17]; first compound 8 µM): 0.602 | relative viability ([18]; first compound 0.08 µM): 0.836 | relative viability ([18]; first compound 0.253 µM): 1.09 | relative viability ([18]; first compound 0.8 µM): 1.02 | relative viability ([18]; first compound 2.53 µM): 0.996 | relative viability ([18]; first compound 8 µM): 1.01 | relative viability ([19]; first compound 0.08 µM): 0.51 | relative viability ([19]; first compound 0.253 µM): 0.663 | relative viability ([19]; first compound 0.8 µM): 0.476 | relative viability ([19]; first compound 2.53 µM): 0.525 | relative viability ([19]; first compound 8 µM): 0.54 | relative viability ([20]; first compound 0.08 µM): 1.02 | relative viability ([20]; first compound 0.253 µM): 0.981 | relative viability ([20]; first compound 0.8 µM): 1.07 | relative viability ([20]; first compound 2.53 µM): 1.09 | relative viability ([20]; first compound 8 µM): 1.12 | relative viability ([21]; first compound 0.08 µM): 1.1 | relative viability ([21]; first compound 0.253 µM): 0.876 | relative viability ([21]; first compound 0.8 µM): 0.902 | relative viability ([21]; first compound 2.53 µM): 0.864 | relative viability ([21]; first compound 8 µM): 0.792
